# Like-named read-outs stand apart in the source and are kept apart here.
# Assays:
# [1] = biological target: T1, beta-catenin/TCF4 engagement (Homo sapiens, UniProt P35222); assay: Nano-BRET target engagement assay (B-cat-Halo & TCF4-Luc in HEK293 cells); type: cell-based; details: absolute IC50; read-out: NanoBRET Abs IC50
# T1 construct: expressed in transfected cells; host or cells: HEK293
# T1 sequence (P35222 1-781): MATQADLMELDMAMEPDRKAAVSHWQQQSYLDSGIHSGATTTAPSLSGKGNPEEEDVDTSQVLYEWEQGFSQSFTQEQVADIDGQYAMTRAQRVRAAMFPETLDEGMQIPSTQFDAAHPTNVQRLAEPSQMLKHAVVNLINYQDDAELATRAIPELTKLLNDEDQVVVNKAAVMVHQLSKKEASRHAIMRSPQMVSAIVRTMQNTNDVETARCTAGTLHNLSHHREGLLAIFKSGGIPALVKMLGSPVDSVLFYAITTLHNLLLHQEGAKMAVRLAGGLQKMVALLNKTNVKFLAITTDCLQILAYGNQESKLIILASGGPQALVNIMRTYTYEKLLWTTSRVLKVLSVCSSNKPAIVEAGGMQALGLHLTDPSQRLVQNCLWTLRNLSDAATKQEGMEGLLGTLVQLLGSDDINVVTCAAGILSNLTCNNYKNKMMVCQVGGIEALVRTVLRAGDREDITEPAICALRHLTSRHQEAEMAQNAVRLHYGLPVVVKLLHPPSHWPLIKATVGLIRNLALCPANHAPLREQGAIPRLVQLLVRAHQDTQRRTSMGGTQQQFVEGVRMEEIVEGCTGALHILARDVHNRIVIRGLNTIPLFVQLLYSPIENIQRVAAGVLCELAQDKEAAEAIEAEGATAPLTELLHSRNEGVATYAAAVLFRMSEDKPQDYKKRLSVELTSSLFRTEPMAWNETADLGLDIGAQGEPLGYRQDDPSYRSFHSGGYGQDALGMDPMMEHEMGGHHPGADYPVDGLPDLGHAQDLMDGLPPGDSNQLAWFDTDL
# Solubility in PBS = type: physicochemical
# Outline: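 Solubility is derived from HPLC peak areas: the ratio of the PBS supernatant peak to a 50 μM DMSO peptide peak, times 50 uM.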
# [2] = biological target: T2, full-length beta-Catenin (Uniprot ID P35222) (Homo sapiens, UniProt P35222); assay: Fluorescence polarization IC50 (beta-catenin / 5FAM-TCF4 10-53 competition); type: binding; details: fluorescence polarization; read-out: beta-Catenin FP IC50
# T2 construct: 10 nM full-length beta-Catenin (Uniprot ID P35222)
# T2 sequence (P35222 1-781): T1 sequence (P35222 1-781)
Structure (SMILES),IC50 [1],Solubility (Solubility in PBS; Solubility (uM)),IC50 [2],Solubility (Solubility in PBS)
"CC(=O)N1CCC[C@]12CC=CCCCC1(CCCC=CCCCOC(=O)N3CC[C@@](C(=O)N[C@@H](Cc4ccccc4Cl)C(=O)N[C@@H](Cc4csc5ccccc45)C(=O)N[C@H](C(N)=O)[C@@H](C)O)(C3)NC(=O)[C@H](CCCCNC(C)C)NC(=O)[C@H](Cc3ccccc3)NC(=O)[C@H](C)NC(=O)[C@H](C)NC(=O)[C@H](CCC(=O)O)NC(=O)[C@H](CC(=O)O)NC1=O)NC(=O)[C@H](CC(C)(C)C)NC(=O)[C@H](CC(=O)O)NC2=O (stereo partly drawn) [I-1282, Ac-PL3-Asp-Npg-B5-Asp-Glu-Ala-Ala-Phe-iPrLys-PyrS2-2C1F-BztA-Thr-NH2]",43.1 µM,24 µM,0.034 µM,
"CC(=O)N1CCC[C@]12CC=CCCCC1(CCCC=CCCCOC(=O)N3CC[C@@](C(=O)N[C@@H](Cc4ccccc4Cl)C(=O)N[C@@H](Cc4csc5ccccc45)C(=O)N[C@@H](CC(C)C)C(N)=O)(C3)NC(=O)[C@H](CCCCNC(C)C)NC(=O)[C@H](Cc3ccccc3)NC(=O)[C@H](C)NC(=O)[C@H](C)NC(=O)[C@H](CCC(=O)O)NC(=O)[C@H](CC(=O)O)NC1=O)NC(=O)[C@H](CC(C)(C)C)NC(=O)[C@H](CC(=O)O)NC2=O (stereo partly drawn) [I-1283, Ac-PL3-Asp-Npg-B5-Asp-Glu-Ala-Ala-Phe-iPrLys-PyrS2-2C1F-BztA-Leu-NH2]",38.6 µM,,0.026 µM,10 µM
"CC(=O)N1CCC[C@]12CC=CCCCC1(CCCC=CCCCOC(=O)N3CC[C@@](C(=O)N[C@@H](Cc4ccsc4)C(=O)N[C@@H](Cc4csc5ccccc45)C(=O)N[C@H](CO)[C@@H](C)O)(C3)NC(=O)[C@H](CC(C)C)NC(=O)[C@H](Cc3ccccc3)NC(=O)[C@H](C)NC(=O)[C@H](C)NC(=O)[C@H](CC(=O)O)NC(=O)[C@H](CC(=O)O)NC1=O)NC(=O)[C@H](CC(C)(C)C)NC(=O)[C@H](CC(N)=O)NC2=O (stereo partly drawn) [I-1304, Ac-PL3-Asn-Npg-B5-Asp-Asp-Ala-Ala-Phe-Leu-PyrS2-3Thi-BztA-Thro1]",33.6 µM,,0.031 µM,10 µM

# The next compounds have a lower IC50 [1] than those just listed; values first:
IC50 [1],Solubility (Solubility in PBS; Solubility (uM)),IC50 [2],Solubility (Solubility in PBS),Structure (SMILES)
9.1 µM,28 µM,0.086 µM,,"CC(=O)N1CCC[C@]12CC=CCCCC1(CCCC=CCCCOC(=O)N3CC[C@@](C(=O)N[C@@H](Cc4ccsc4)C(=O)N[C@@H](Cc4csc5ccccc45)C(=O)N[C@H](CO)[C@@H](C)O)(C3)NC(=O)[C@H](Cc3ccccc3)NC(=O)[C@H](Cc3ccccc3)NC(=O)[C@H](C)NC(=O)[C@H](C)NC(=O)[C@H](CC(=O)O)NC(=O)[C@H](CC(=O)O)NC1=O)NC(=O)[C@H](CC(C)(C)C)NC(=O)[C@H](CC(=O)O)NC2=O (stereo partly drawn) [I-1303, Ac-PL3-Asp-Npg-B5-Asp-Asp-Ala-Ala-Phe-Phe-PyrS2-3Thi-BztA-Thro1]"
9.7 µM,49 µM,0.006 µM,,"CC(=O)N1CCC[C@]12CC=CCCCC1(CCCC=CCCCOC(=O)N3CC[C@@](C(=O)N[C@@H](Cc4ccsc4)C(=O)N[C@@H](Cc4csc5ccccc45)C(=O)N[C@H](CO)[C@@H](C)O)(C3)NC(=O)[C@H](CCO)NC(=O)[C@H](Cc3ccccc3)NC(=O)[C@H](C)NC(=O)[C@H](C)NC(=O)[C@H](CC(=O)O)NC(=O)[C@H](CC(=O)O)NC1=O)NC(=O)[C@H](CC(C)(C)C)NC(=O)[C@H](CC(=O)O)NC2=O (stereo partly drawn) [I-1305, Ac-PL3-Asp-Npg-B5-Asp-Asp-Ala-Ala-Phe-Hse-PyrS2-3Thi-BztA-Thro1]"
11.9 µM,47 µM,0.025 µM,,"CC(=O)N1CCC[C@]12CC=CCCCC1(CCCC=CCCCCCC[C@@](C)(C(=O)N[C@@H](Cc3ccccc3Cl)C(=O)N[C@@H](Cc3csc4ccccc34)C(=O)N[C@H](CO)[C@@H](C)O)NC(=O)[C@H]([C@@H](C)O)NC(=O)[C@H](Cc3ccccc3)NC(=O)[C@H](C)NC(=O)[C@H](C)NC(=O)[C@H](CC(=O)O)NC(=O)[C@H](CC(=O)O)NC1=O)NC(=O)[C@H](CC(C)(C)C)NC(=O)[C@H](CC(=O)O)NC2=O (stereo partly drawn) [I-1308, Ac-PL3-Asp-Npg-B5-Asp-Asp-Ala-Ala-Phe-Thr-S8-2C1F-BztA-Thro1]"

# From US20240116985A1, “STAPLED PEPTIDES AND METHODS THEREOF” (priority 2020, published 2024)
